In US10251892B2, “Bicyclic heterocycles as FGFR4 inhibitors” (Incyte Corporation, priority 2015, dated 2019):

What was measured:
[1] = biological target: FGFR4 (Homo sapiens (Human), UniProt P22455); assay: FGFR Enzymatic Assay (peptide phosphorylation, FRET), FGFR4; assay type: biochemical
Protocol: (§1) The inhibitor potency of the exemplified compounds was measured in an enzyme assay that measures peptide phosphorylation using FRET measurements to detect product formation. Inhibitors were serially diluted in DMSO and a volume of 0.5 μL was transferred to the wells of a 384-well plate.
The enzymes were purchased from Millipore or Invitrogen.
(§2) GraphPad prism3 was used to analyze the data.

[2] = biological target: FGFR3 enzyme (Homo sapiens (Human), UniProt P22607); assay: FGFR Enzymatic Assay (peptide phosphorylation, FRET), FGFR3; assay type: biochemical; conditions: IC50 ratio showing FGFR3 selectivity; pre-incubated for 4 hours
Sequence of FGFR3 enzyme (P22607 23-806): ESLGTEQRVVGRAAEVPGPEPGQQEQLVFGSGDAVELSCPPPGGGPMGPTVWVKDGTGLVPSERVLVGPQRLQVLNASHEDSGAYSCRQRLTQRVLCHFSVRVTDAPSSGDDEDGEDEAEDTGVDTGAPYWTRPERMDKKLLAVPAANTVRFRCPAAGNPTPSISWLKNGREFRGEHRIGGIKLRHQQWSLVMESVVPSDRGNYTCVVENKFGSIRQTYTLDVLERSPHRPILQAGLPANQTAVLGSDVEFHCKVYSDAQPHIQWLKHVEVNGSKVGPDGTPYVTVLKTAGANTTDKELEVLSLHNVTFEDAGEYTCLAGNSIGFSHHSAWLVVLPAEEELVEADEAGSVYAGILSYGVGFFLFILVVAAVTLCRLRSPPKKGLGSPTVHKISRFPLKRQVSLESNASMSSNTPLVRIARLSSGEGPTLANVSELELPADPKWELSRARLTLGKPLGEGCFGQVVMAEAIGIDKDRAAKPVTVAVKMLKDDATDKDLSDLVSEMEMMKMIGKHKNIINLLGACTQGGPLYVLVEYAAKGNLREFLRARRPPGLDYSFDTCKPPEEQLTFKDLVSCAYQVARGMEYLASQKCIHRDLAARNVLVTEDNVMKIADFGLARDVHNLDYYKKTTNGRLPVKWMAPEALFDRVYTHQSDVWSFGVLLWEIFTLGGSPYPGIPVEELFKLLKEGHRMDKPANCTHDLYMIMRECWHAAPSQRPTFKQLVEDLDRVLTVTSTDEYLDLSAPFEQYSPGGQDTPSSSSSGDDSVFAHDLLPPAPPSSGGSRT
Protocol: as §1, §2

[3] = IC50 ratio showing FGFR4 selectivity, pre-incubated for 4 hours
[4] = ratio of IC50 data showing FGFR4 selectivity, pre-incubated for 5 to 10 minutes

Sequence of FGFR4 (P22455 22-802): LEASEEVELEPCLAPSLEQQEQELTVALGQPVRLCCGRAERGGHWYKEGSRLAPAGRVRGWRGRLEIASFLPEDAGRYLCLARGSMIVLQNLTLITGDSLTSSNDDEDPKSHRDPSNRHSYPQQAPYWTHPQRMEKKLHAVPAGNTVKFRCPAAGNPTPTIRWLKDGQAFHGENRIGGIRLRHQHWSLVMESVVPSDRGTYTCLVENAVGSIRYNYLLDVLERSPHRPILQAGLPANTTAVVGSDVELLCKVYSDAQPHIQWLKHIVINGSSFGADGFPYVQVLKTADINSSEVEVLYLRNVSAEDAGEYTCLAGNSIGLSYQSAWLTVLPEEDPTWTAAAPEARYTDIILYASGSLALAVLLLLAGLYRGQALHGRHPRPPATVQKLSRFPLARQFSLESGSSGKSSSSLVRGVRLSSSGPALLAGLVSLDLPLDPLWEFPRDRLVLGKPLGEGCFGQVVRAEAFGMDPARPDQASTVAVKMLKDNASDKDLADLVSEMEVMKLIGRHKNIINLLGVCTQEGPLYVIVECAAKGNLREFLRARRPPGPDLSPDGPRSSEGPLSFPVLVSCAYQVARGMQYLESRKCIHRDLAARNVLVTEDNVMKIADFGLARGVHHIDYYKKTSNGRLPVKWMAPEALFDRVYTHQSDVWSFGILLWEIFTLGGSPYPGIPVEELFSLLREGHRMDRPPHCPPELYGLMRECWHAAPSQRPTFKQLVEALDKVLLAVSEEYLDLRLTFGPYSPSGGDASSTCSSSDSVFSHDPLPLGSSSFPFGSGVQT

| Structure (SMILES) | FGFR1/FGFR4 [1, 3] | FGFR2/FGFR4 [1, 3] | FGFR3/FGFR4 [1, 3] | FGFR4/FGFR3 [2] | FGFR1/FGFR4 [1, 4] | FGFR2/FGFR4 [1, 4] | FGFR3/FGFR4 [1, 4] | FGFR1/FGFR3 [2] |
| --- | --- | --- | --- | --- | --- | --- | --- | --- |
| COc1cc(OC)c(F)c(N2Cc3cnc(-c4cncc(CN5CCOCC5)c4)cc3C3(CC3)C2=O)c1F [Example 16, 2′-(2,6-difluoro-3,5-dimethoxyphenyl)-6′-(5-(morpholinomethyl)pyridin-3-yl)-1′H-spiro[cyclopropane-1,4′-[2,7]naphthyridin]-3′(2′H)-one] | >50 | >25 | >10 | – | >25 | >10 | >10 | >1 |
| COc1cc(OC)c(F)c(N2Cc3cnc(-c4cncc(NS(C)(=O)=O)c4)cc3C3(CC3)C2=O)c1F [Example 15, N-(5-(2′-(2,6-difluoro-3,5-dimethoxyphenyl)-3′-oxo-2′,3′-dihydro-1′H-spiro[cyclopropane-1,4′-[2,7]naphthyridine]-6′-yl)pyridin-3-yl)methanesulfonamide] | >50 | >25 | >10 | – | >50 | >25 | >10 | >3 |
| COc1cc(OC)c(F)c(N2Cc3cnc(-c4cncc(Cl)c4)cc3C3(CC3)C2=O)c1F [Example 11, 6′-(5-chloropyridin-3-yl)-2′-(2,6-difluoro-3,5-dimethoxyphenyl)-1′H-spiro[cyclopropane-1,4′-[2,7]naphthyridin]-3′(2′H)-one] | >25 | >25 | >10 | – | >50 | >20 | >25 | >1 |
| COc1cc(OC)c(F)c(N2Cc3cnc(-c4cncc(N5CCOCC5)c4)cc3C3(CC3)C2=O)c1F [Example 6, 2′-(2,6-difluoro-3,5-dimethoxyphenyl)-6′-(5-morpholinopyridin-3-yl)-1′H-spiro[cyclopropane-1,4′-[2,7]naphthyridin]-3′(2′H)-one] | >100 | >100 | >25 | – | >100 | >100 | >50 | >3 |
| COc1cc(OC)c(F)c(N2Cc3cnc(-c4cc(N)c(F)cc4C)cc3C3(CC3)C2=O)c1F [Example 2, 6′-(5-amino-4-fluoro-2-methylphenyl)-2′-(2,6-difluoro-3,5-dimethoxyphenyl)-1′H-spiro[cyclopropane-1,4′-[2,7]naphthyridin]-3′(2′H)-one] | >10 | >10 | >10 | – | >10 | >10 | >10 | – |
| COc1cc(OC)c(F)c(N2Cc3cnc(-c4nn(CC#N)cc4C#N)cc3C3(CC3)C2=O)c1F [Example 174, 1-(cyanomethyl)-3-(2′-(2,6-difluoro-3,5-dimethoxyphenyl)-3′-oxo-2′,3′-dihydro-1′H-spiro[cyclopropane-1,4′-[2,7]naphthyridine]-6′-yl)-1H-pyrazole-4-carbonitrile] | >100 | >10 | >25 | – | – | – | – | – |
| COc1cncc(-c2cc3c(cn2)CN(c2c(F)c(OC)cc(OC)c2F)C(=O)C32CC2)c1 [Example 10, 2′-(2,6-difluoro-3,5-dimethoxyphenyl)-6′-(5-methoxypyridin-3-yl)-1′H-spiro[cyclopropane-1,4′-[2,7]naphthyridin]-3′(2′H)-one] | >25 | >25 | >10 | – | >25 | >10 | >10 | >1 |
| COc1cc(OC)c(F)c(N2Cc3cnc(-c4cncc(F)c4)cc3C3(CC3)C2=O)c1F [Example 5, 2′-(2,6-difluoro-3,5-dimethoxyphenyl)-6′-(5-fluoropyridin-3-yl)-1′H-spiro[cyclopropane-1,4′-[2,7]naphthyridin]-3′(2′H)-one] | >10 | >5 | >1 | – | >10 | >5 | >4 | >3 |
| COc1cc(OC)c(F)c(N2Cc3cnc(-c4cncc(-n5ccnc5)c4)cc3C3(CC3)C2=O)c1F [Example 12, 6′-(5-(1H-imidazol-1-yl)pyridin-3-yl)-2′-(2,6-difluoro-3,5-dimethoxyphenyl)-1′H-spiro[cyclopropane-1,4′-[2,7]naphthyridin]-3′(2′H)-one] | >50 | >25 | >10 | – | >50 | >25 | >20 | >3 |
| COc1cc(OC)c(F)c(N2Cc3cnc(-c4cncc(S(=O)(=O)N5CCOCC5)c4)cc3C3(CC3)C2=O)c1F [Example 14, 2′-(2,6-difluoro-3,5-dimethoxyphenyl)-6′-(5-(morpholinosulfonyl)pyridin-3-yl)-1′H-spiro[cyclopropane-1,4′-[2,7]naphthyridin]-3′(2′H)-one] | >50 | >10 | >1 | – | >25 | >5 | >5 | >5 |
| COc1cc(OC)c(F)c(N2Cc3cnc(-c4cncc(C#N)c4)cc3C3(CC3)C2=O)c1F [Example 8, 5-(2′-(2,6-difluoro-3,5-dimethoxyphenyl)-3′-oxo-2′,3′-dihydro-1′H-spiro[cyclopropane-1,4′-[2,7]naphthyridine]-6′-yl)nicotinonitrile] | >50 | >10 | >10 | – | >50 | >10 | >10 | >5 |
| COc1cc(OC)c(F)c(N2Cc3cnc(-c4cncc(N)c4)cc3C3(CC3)C2=O)c1F [Example 4, 6′-(5-aminopyridin-3-yl)-2′-(2,6-difluoro-3,5-dimethoxyphenyl)-1′H-spiro[cyclopropane-1,4′-[2,7]naphthyridin]-3′(2′H)-one] | >25 | >10 | >10 | – | >10 | >10 | >5 | >1 |
| COc1cc(OC)c(F)c(N2Cc3cnc(-c4cc(N)cnc4C)cc3C3(CC3)C2=O)c1F [Example 7, 6′-(5-amino-2-methylpyridin-3-yl)-2′-(2,6-difluoro-3,5-dimethoxyphenyl)-1′H-spiro[cyclopropane-1,4′-[2,7]naphthyridin]-3′(2′H)-one] | >50 | >25 | >25 | – | >25 | >10 | >10 | >1 |

Further lines, with some results ahead:

| FGFR1/FGFR4 [1, 3] | FGFR2/FGFR4 [1, 3] | FGFR3/FGFR4 [1, 3] | FGFR4/FGFR3 [2] | Structure (SMILES) | FGFR1/FGFR4 [1, 4] | FGFR2/FGFR4 [1, 4] | FGFR3/FGFR4 [1, 4] | FGFR1/FGFR3 [2] |
| --- | --- | --- | --- | --- | --- | --- | --- | --- |
| >25 | >25 | >10 | – | COc1cc(OC)c(F)c(N2Cc3cnc(-c4cc(N)ccc4C#N)cc3C3(CC3)C2=O)c1F [Example 3, 4-amino-2-(2′-(2,6-difluoro-3,5-dimethoxyphenyl)-3′-oxo-2′,3′-dihydro-1′H-spiro[cyclopropane-1,4′-[2,7]naphthyridine]-6′-yl)benzonitrile] | >25 | >25 | >25 | – |
| >10 | >10 | >10 | – | COc1cc(OC)c(F)c(N2Cc3cnc(-c4[nH]ncc4C#N)cc3C3(CC3)C2=O)c1F [Example 171, 5-(2′-(2,6-difluoro-3,5-dimethoxyphenyl)-3′-oxo-2′,3′-dihydro-1′H-spiro[cyclopropane-1,4′-[2,7]naphthyridine]-6′-yl)-1H-pyrazole-4-carbonitrile] | – | – | – | – |
| >100 | >100 | >50 | – | COc1cc(OC)c(F)c(N2Cc3cnc(-c4nn(CC5CCOCC5)cc4C#N)cc3C3(CC3)C2=O)c1F [Example 173, 3-(2′-(2,6-difluoro-3,5-dimethoxyphenyl)-3′-oxo-2′,3′-dihydro-1′H-spiro[cyclopropane-1,4′-[2,7]naphthyridine]-6′-yl)-1-((tetrahydro-2H-pyran-4-yl)methyl)-1H-pyrazole-4-carbonitrile] | – | – | – | – |
| >25 | >25 | >25 | – | COc1cc(OC)c(F)c(N2Cc3cnc(-c4cc(N)ccc4C)cc3C3(CC3)C2=O)c1F [Example 1, 6′-(5-amino-2-methylphenyl)-2′-(2,6-difluoro-3,5-dimethoxyphenyl)-1′H-spiro[cyclopropane-1,4′-[2,7]naphthyridin]-3′(2′H)-one] | >25 | >25 | >50 | – |
| – | – | – | >10 | COc1cc(OC)c(F)c(N2Cc3cnc(-c4cn(C)nc4C)cc3N(c3cccc(-c4cnnn4C)c3)C2=O)c1F [Example 89, 3-(2,6-difluoro-3,5-dimethoxyphenyl)-7-(1,3-dimethyl-1H-pyrazol-4-yl)-1-(3-(1-methyl-1H-1,2,3-triazol-5-yl)phenyl)-3,4-dihydropyrido[4,3-d]pyrimidin-2(1H)-one] | – | – | – | >5 |
| >50 | >25 | >10 | – | COc1cc(OC)c(F)c(N2Cc3cnc(-c4nn(C)cc4C#N)cc3C3(CC3)C2=O)c1F [Example 172, 3-(2′-(2,6-difluoro-3,5-dimethoxyphenyl)-3′-oxo-2′,3′-dihydro-1′H-spiro[cyclopropane-1,4′-[2,7]naphthyridine]-6′-yl)-1-methyl-1H-pyrazole-4-carbonitrile] | – | – | – | – |
| – | – | – | >1 | COc1cc(OC)c(F)c(N2Cc3cnc(-c4cn(C5CCS(=O)(=O)C5)nc4C)cc3C3(CC3)C2=O)c1F (stereo not drawn) [Example 54, 2′-(2,6-difluoro-3,5-dimethoxyphenyl)-6′-[1-(1,1-dioxidotetrahydro-3-thienyl)-3-methyl-1H-pyrazol-4-yl]-1′,2′-dihydro-3′H-spiro[cyclopropane-1,4′-[2,7]naphthyridin]-3′-one] | – | – | – | >5 |
